Results as given in patent US20120251492A1, “TRITERPENE DERIVATIVE AND AGENT FOR PREVENTING OR TREATING CHRONIC HEPATITIS C” (MEIJI SEIKA PHARMA CO., LTD., priority 2009, published 2012).
Read-outs that look alike come from different tables or passages of the source.

Experiments:
[1] = system: HCV (Con1 Strain) replicon; assay: microbe, parasite or virus in culture; assay type: cell-based, hepatitis C virus (HCV) Con1 strain, in Huh7 cells; conditions: read-out: IC50 Value (50% growth inhibitory concentration)
Source text: The compounds represented by the formula (I) were subjected to an HCV replicon assay and a cytotoxicity test.
In order to quantify the degree of HCV virus proliferation, a material was constructed by introducing a luciferase gene as a reporter gene into the genomic gene sequence of HCV Cont strain. The luciferase gene was introduced in the form of fusion with a neomycin-resistant gene, immediately after the IRES (Internal Ribosome Entry Site) of the HCV gene according to the method of Krieger et al., (J. Virol. 75: 4614 (2001)). The constructed RNA was introduced into Huh7 cells by electroporation, and isolated as G418 resistant clone.
The HCV replicon cells comprising the luciferase gene and the neomycin resistance gene were suspended in a culture liquid [D-MEM (SIGMA, D6046) containing 10% of fetal bovine serum (EQUITECH-BIO, INC.)], and seeded onto 96-well plates at 5000 to 8100 cells/well. Test compounds were added at various concentrations, and the cells were cultured under 5% CO2 at 37° C. for 3 days. For adding the test compounds, solutions of the test compounds dissolved in dimethyl sulfoxide (DMSO) were used, and diluted with the culture liquid to appropriate concentrations before use. The experiment was conducted with the final concentrations of DMSO used for dissolving the test compounds being 0.4% during the culturing of the replicon cells. To wells to which no test compound was added, DMSO was added with a final concentration of 0.4%.
Assay plates were prepared for two systems; one of the assays was conducted on a white plate, and the other was conducted on a clear plate. After the culturing for treatments with the test compounds was completed, the white plate was subjected to chemiluminescence measurement by using a Steady-Glo Luciferase Assay System (Promega, E2520) in order to detect effects on HCV replicon proliferation. A EnVision multilabel counter (PerkinElmer 2102) was used for the chemiluminescence measurement. While the value obtained when no test compound was added was taken as 0% inhibition, the inhibitory ratios by the treatments with the agents were calculated.
Regarding the HCV replicon assay, IC50s (50% growth inhibitory concentrations) of the agents were calculated, with the value obtained when no agent was added being taken as 0% inhibition.

[2] = Pharmacokinetics study in mice; assay type: in vivo; conditions: Balb/c mice, male, oral 20 mg/kg suspended in olive oil, LC-MS/MS; for AUC / Cmax / half-life: mouse, plasma; for AUC: read-out: AUC (area under the plasma drug concentration-time curve); for Cmax: read-out: Cmax (maximum plasma concentration); for half-life: read-out: t1/2 (plasma half-life) (converted)
Description: Balb/c mice (male, 7 to 8-week old) were used (3 or more mice per group). Each test compound suspended in olive oil was orally administered at 20 mg/kg, and blood was collected from the jugular vein after 2, 6, and 24 hours, or after 2, 4, 6, 8, 24, and 48 hours. The plasma drug concentration was measured by using a liquid chromatograph/mass spectrometry/mass spectrometry (LC-MS/MS). In addition, pharmacokinetics parameters were obtained from change in the obtained plasma concentration.

[3] = Hepatitis C virus, Huh-7, 72 h, HCV replicon cells (Huh7) with luciferase gene, cultured 3 days with test compound, 0.4% DMSO

| SMILES | IC50 [1, 3] [µM] | AUC [2] [ng·h/mL] | Cmax [2] [ng/mL] | half-life [2] [h] | also measured |
| --- | --- | --- | --- | --- | --- |
| CC1(C)C[C@@H](OCc2ccc(C=O)cc2)[C@]2(C)CC[C@]3(C)C(=CCC4[C@@]5(C)CC[C@H](O)[C@](C)(CO)C5CC[C@]43C)[C@@H]2C1 (stereo partly drawn) [Compound 4, 22β-(4-formylbenzyloxy)olean-12-ene-3β,24-diol] | 3.59 | – | – | – | – |
| CC1(C)C[C@@H](OCc2ccccc2)[C@]2(C)CC[C@]3(C)C(=CCC4[C@@]5(C)CC[C@H](O)[C@](C)(C(=O)O)C5CC[C@]43C)[C@@H]2C1 (stereo partly drawn) [Compound 12, 22β-benzyloxyolean-12-ene-3β-hydroxy-24-oic acid] | 5.54 | 74700 ± 11000 | 4800 ± 1100 | 11.9 ± 2.7 | – |
| CN(C)Cc1ccc(CO[C@@H]2CC(C)(C)C[C@H]3C4=CCC5[C@@]6(C)CC[C@H](O)[C@](C)(CO)C6CC[C@@]5(C)[C@]4(C)CC[C@@]23C)cc1 (stereo partly drawn) [Compound 10, 22β-(4-dimethylaminomethylbenzyloxy)olean-12-ene-3β,24-diol] | 3.68 | – | – | – | – |
| CC1(C)C[C@@H](OCCCOc2ccc(C(=O)O)cc2)[C@]2(C)CC[C@]3(C)C(=CCC4[C@@]5(C)CC[C@H](O)[C@](C)(CO)C5CC[C@]43C)[C@@H]2C1 (stereo partly drawn) [Compound 8, 22β-(3-(4-carboxyphenyl)oxypropoxy)olean-12-ene-3β,24-diol] | 6.99 | – | – | – | – |
| C#CCO[C@@H]1CC(C)(C)C[C@H]2C3=CCC4[C@@]5(C)CC[C@H](O)[C@](C)(CO)C5CC[C@@]4(C)[C@]3(C)CC[C@@]12C (stereo partly drawn) [Compound 2, 22β-(2-propynyloxy)olean-12-ene-3β,24-diol] | 5.73 | 44700 ± 16300 | 2800 ± 1000 | 10 ± 1.2 | – |
| CC1(C)C[C@@H](OCc2ccc(C(=O)O)cc2)[C@]2(C)CC[C@]3(C)C(=CCC4[C@@]5(C)CC[C@H](O)[C@](C)(CO)C5CC[C@]43C)[C@@H]2C1 (stereo partly drawn) [Compound 1, 22β-(4-carboxybenzyloxy)olean-12-ene-3β,24-diol] | 13.5 | – | – | – | – |
| CC1(C)C[C@@H](OCc2ccc(CN3CCOCC3)cc2)[C@]2(C)CC[C@]3(C)C(=CCC4[C@@]5(C)CC[C@H](O)[C@](C)(CO)C5CC[C@]43C)[C@@H]2C1 (stereo partly drawn) [Compound 9, 22β-(4-(4-morpholylmethyl)benzyloxy)olean-12-ene-3β,24-diol] | 9.13 | – | – | – | – |
| CC1(C)C[C@@H](OCCCO)[C@]2(C)CC[C@]3(C)C(=CCC4[C@@]5(C)CC[C@H](O)[C@](C)(CO)C5CC[C@]43C)[C@@H]2C1 (stereo partly drawn) [Compound 7, 22β-(3-hydroxypropoxy)olean-12-ene-3β,24-diol] | 5.32 | – | – | – | – |
| CC1(C)C[C@@H](OCc2ccc(CO)cc2)[C@]2(C)CC[C@]3(C)C(=CCC4[C@@]5(C)CC[C@H](O)[C@](C)(CO)C5CC[C@]43C)[C@@H]2C1 (stereo partly drawn) [Compound 3, 22β-(4-hydroxymethylbenzyloxy)olean-12-ene-3β,24-diol] | – | – | – | – | IC50 ([1]; Hepatitis C virus, Huh-7, 72 h): 1.56 µM |
| CO[C@@H]1CC(C)(C)CC2C3=CCC4[C@@]5(C)CC[C@H](O)[C@](C)(C(=O)O)C5CC[C@@]4(C)[C@]3(C)CC[C@]21C (stereo partly drawn) [Compound 14, 3β-hydroxy-22β-methoxyolean-12-en-24-oic acid] | 5.57 | 81100 ± 18300 | 4800 ± 1100 | 13.9 ± 1 | – |
| C=CCO[C@@H]1CC(C)(C)C[C@H]2C3=CCC4[C@@]5(C)CC[C@H](O)[C@](C)(C(=O)O)C5CC[C@@]4(C)[C@]3(C)CC[C@@]12C (stereo partly drawn) [Compound 13, 22β-allyloxyolean-12-ene-3β-hydroxy-24-oic acid] | 7.05 | 74900 ± 16300 | 4800 ± 1500 | 13 ± 5.5 | – |
| CO[C@@H]1CC(C)(C)C[C@H]2C3=CC[C@@H]4[C@@]5(C)CC[C@H](O)[C@](C)(CO)[C@@H]5CC[C@@]4(C)[C@]3(C)CC[C@@]12C [Compound 17, 22β-methoxyolean-12-ene-3β,24-diol, reference compound] | – | – | – | – | IC50 ([1]; HCV replicon cells (Huh7) with luciferase gene, cultured 3 days with test compound, 0.4% DMSO): > 20 µM; AUC (area under the plasma drug concentration-time curve) [2]: 35600 ± 9700 ng·h/mL; Cmax (maximum plasma concentration) [2]: 2600 ± 700 ng/mL; t1/2 (plasma half-life) [2]: 7.4 ± 0.4 h |
| CC1(C)C[C@@H](OCc2ccc(CNc3ccccc3)cc2)[C@]2(C)CC[C@]3(C)C(=CCC4[C@@]5(C)CC[C@H](O)[C@](C)(CO)C5CC[C@]43C)[C@@H]2C1 (stereo partly drawn) [Compound 11, 22β-(4-phenylaminomethylbenzyloxy)olean-12-ene-3β,24-diol] | 13 | – | – | – | – |
